Data published in PubChem BioAssay (NCI).
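96-well plates; 48 h exposure; 5 concentrations. Endpoints by linear interpolation between flanking doses. Not reached: highest tested concentration assigned. TGI: concentration producing complete growth inhibition.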

How the values were obtained:
Experiment in all cases: NCI-60 cell line screen, 48 h
[1] = test system: RXF-631 renal
[2] = test system: SN12C renal
[3] = test system: UO-31 renal
[4] = test system: MOLT-4 leukemia
[5] = test system: A549 NSCLC
[6] = test system: UACC-62 melanoma
[7] = test system: NCI-H226 lung
[8] = test system: HCC-2998 colon
[9] = test system: SF-539 CNS
[10] = test system: HOP-92 NSCLC
[11] = test system: HCT-116 colon
[12] = test system: DLD-1 colon
[13] = test system: OVCAR-5 ovarian
[14] = test system: SNB-19 CNS
[15] = test system: ACHN renal
[16] = test system: MALME-3M melanoma
[17] = test system: UACC-257 melanoma
[18] = test system: CAKI-1 renal
[19] = test system: LXFL 529 NSCLC
[20] = test system: RXF 393 renal
[21] = test system: LOX IMVI melanoma
[22] = test system: NCI-H23 lung
[23] = test system: XF 498 CNS
[24] = test system: SW-620 colon
[25] = test system: EKVX NSCLC
[26] = test system: SR leukemia
[27] = test system: KM12 colon
[28] = test system: SF-295 CNS
[29] = test system: A498 renal
[30] = test system: CCRF-CEM leukemia
[31] = test system: SK-MEL-28 melanoma
[32] = test system: OVCAR-4 ovarian
[33] = test system: SF-268 CNS
[34] = test system: NCI-H522 lung
[35] = test system: K-562 leukemia
[36] = test system: NCI-H460 lung
[37] = test system: HT29 colon
[38] = test system: SK-MEL-2 melanoma
[39] = test system: DMS 114 small cell lung
[40] = test system: TK-10 renal
[41] = test system: KM20L2 colon
[42] = test system: DMS 273 small cell lung
[43] = test system: M19-MEL melanoma
[44] = test system: SNB-78 CNS
[45] = test system: HCT-15 colon
[46] = test system: RPMI-8226 leukemia
[47] = test system: HOP-62 NSCLC
[48] = test system: U251 CNS
[49] = test system: HOP-18 NSCLC
[50] = test system: 786-0 renal
[51] = test system: HL-60(TB) leukemia
[52] = test system: OVCAR-8 ovarian
[53] = test system: IGROV1 ovarian
[54] = test system: SK-OV-3 ovarian
[55] = test system: M14 melanoma
[56] = test system: SK-MEL-5 melanoma
[57] = test system: SNB-75 CNS

Measured: TGI

CN(c1nc(=[N+](C)C)ss1)C1CCCCC1
> 100 µM: all assays above
